Results reported in patent US8633164B2, “Antimicrobial peptides” (priority 2008, dated 2014).
In brackets after ≈: the same amount, converted by molar mass. Residues, ends and D or L forms follow the SMILES beside them. No end group written: not given here.

Experiments:
LPS = assay: Animal model of endotoxicity (LPS/galactosamine endotoxic shock, mortality); type: in vivo, mice; settings: mouse, LPS + galactosamine i.p., 150 μg peptide i.p.
Source text: The wild-type LPS of E. coli ATCC 35218 and P. aeruginosa PAO1 were obtained from the aqueous phase of a water-phenol extract and purified by treatment with chaotropic agents and detergents.
Female ICR (CD-1) mice weighing 20-23 g were randomly distributed in experimental groups (n=16). Endotoxic shock was induced in the animals by coinoculation of LPS and galactosamine following the method of Galanos et al. Specifically, each animal received an intraperitoneal injection containing a mixture of 0.3 μg of LPS and 18 mg of galactosamine resuspended in 200 μl of endotoxin-free saline.
Immediately after LPS administration, animals were intraperitoneally inoculated with 150 μg of the test peptide resuspended in 150 μl of pyrogen-free saline containing 10% dimethylformamide as solubilizing agent. To facilitate the therapeutical action of the peptide, mice so treated were gently massaged at the site of inoculation for a few seconds. Animal mortality was monitored at 6 h and 12 h postinoculation and at daily intervals for 5 days.
In each independent experiment a group of animals received 150 μl of pyrogen-free saline containing 150 μg of polymyxin B, a lipopeptide with well known antiendotoxic properties, whereas another group was left untreated.
Results of animal mortality at all experimental time points were globally analyzed using the Kaplan-Meier survival analysis. When the survival plots were parallel, data were compared by the Log-Rank test, whereas for those plots that intersected the “Breslow-Gehan-Wilcoxon”. […]

[1] = test system: Acinetobacter baumanii ATCC 19606; type: cell-based
Experimental: (§1) The antibacterial activity of the peptides was determined by microdilution susceptibility assays performed in Mueller-Hinton broth. Susceptibility testing was performed following the recommendations of the Clinical Standards Institute (CLSI, formerly NCCLS) [Standards, 2000]. Peptides (2 mg/ml in 4 mM HEPES, pH 7.2) were two-fold diluted in Mueller-Hinton Broth in 96-well microtitre plates to obtain concentrations from 512 to 0.25 μg/ml in a volume of 100 μl. Bacteria were grown on Mueller-Hinton agar plates for 1 to 3 days depending on the growth rate of the bacteria, suspended in 2 ml of 0.9% saline and adjusted to 10^8 CFU/ml. The bacterial suspension was diluted 100-fold in Mueller-Hinton broth, and 0.1 ml of this new dilution (10^5 CFU) was added to the peptide dilutions. The microtiter plates were incubated at 37° C. for 24 h. The minimal inhibitory concentration (MIC) of each peptide against a given bacterial strain was regarded as the minimal concentration of the peptide which prevents the growth of that organism 24 h after inoculation. The bactericidal effect of the peptides was determined, after 24 h incubation at 37° C., by plating 10 μl of the content of non-cloudy wells onto Mueller-Hinton agar plates. Plates were incubated at 37° C. for 1 to 5 days, and a viable count was performed. The minimal bactericidal concentration (MBC) of each peptide for a given bacterial strain was regarded as the minimal concentration of the peptide which kills 99.9% of the colony-forming units (CFU) present in the final inoculum.

[2] = test system: Escherichia coli ATCC 25922; type: cell-based
Experimental: as §1

[3] = test system: Staphylococcus aureus ATCC 25923; type: cell-based
Experimental: as §1

[4] = test system: Stenotrophomonas Maltophilia 3998-00 CUN; type: cell-based
Experimental: as §1

MRSA ATCC 43300 = type: cell-based, methicillin-resistant Staphylococcus aureus
Experimental: as §1

MRSA CUN 3792-99 = type: cell-based, methicillin-resistant Staphylococcus aureus
Experimental: as §1

HIV-1 isolate = assay: Anti-HIV action: inhibition of virus replication in T-cell line PM1; type: cell-based; settings: 20 μg/ml peptide
Experimental: A T-cell line (PM1) was incubated with a HIV-1 isolate and the infected cells were cultivated in peptide-containing medium. After some days the number of viruses was determined as compared to untreated cells. The number of viruses is determined by the concentrations of the HIV-capsid in the supernatant. FIG. 8 depicts the anti-HIV action of the peptides Pep19-2, -4, 6, and 8 at peptide concentrations of 1, 5, 10, and 20 μg/ml.

[5] = test system: LPS-induced cytokine expression in human mononuclear cells; assay: Inhibition of LPS-induced cytokine secretion of human mononuclear cells; type: cell-based; settings: comparison of Pep12, 17-1 and 19-1
Experimental: Human mononuclear cells (MNC): heparinized (20 IU/ml) blood obtained from healthy donors was mixed with an equal volume of Hank's balanced solution, layered over Ficoll, and centrifuged for 40 min (21° C., 500 g). The interphase layer of MNC was collected and washed twice in Hank's medium and then resuspended in RPMI 1640 supplemented with 2 mM L-glutamine, 100 U/ml penicillin, and 100 μg/ml streptomycin. MNC (200 μl/well; 5×10^6 cells/ml) were transferred into 96-well culture plates. Twenty microliters of a mixture containing LPS (100 ng/ml or 10 ng/ml) and Gra-pep (10:1 weight % excess) was added to each well. Supernatants were harvested after 4 h incubation at 37° C. under 5% CO2, and TNFα production was measured in a sandwich-ELISA. TNFα was determined in duplicate at two different dilutions and the values from two independent experiments were averaged.

| MIC [1] [mg/L] | MIC [2] [mg/L] | MIC [3] [mg/L] | MIC [4] [mg/L] | MIC (MRSA ATCC 43300) [mg/L] | MIC (MRSA CUN 3792-99) [mg/L] | Compound | Dead mice/number of mice, 24 h (LPS) | Dead mice/number of mice, 48 h (LPS) | Dead mice/number of mice, 72 h (LPS) | MBC [2] [mg/L] | MBC [3] [mg/L] | % inhibition of virus replication in a T-cell line (HIV-1 isolate) [%] | Inhibition of LPS-induced cytokine production [5] |
| --- | --- | --- | --- | --- | --- | --- | --- | --- | --- | --- | --- | --- | --- |
| 16 (≈ 6.13 µM) |  | 15.6 (≈ 5.98 µM) | 32 (≈ 12.3 µM) | 16 (≈ 6.13 µM) | 16 (≈ 6.13 µM) | N=C(N)NCCC[C@H](NC(=O)[C@H](Cc1ccc(O)cc1)NC(=O)[C@H](CCCCN)NC(=O)[C@H](CCCCN)NC(=O)CN)C(=O)N[C@@H](CCCNC(=N)N)C(=O)N[C@@H](Cc1ccccc1)C(=O)N[C@@H](CCCNC(=N)N)C(=O)N[C@@H](Cc1c[nH]c2ccccc12)C(=O)N[C@@H](CCCCN)C(=O)N[C@@H](Cc1ccccc1)C(=O)N[C@@H](CCCCN)C(=O)NCC(=O)N[C@@H](CCCCN)C(=O)N[C@@H](Cc1c[nH]c2ccccc12)C(=O)N[C@@H](Cc1ccccc1)C(=O)N[C@@H](Cc1c[nH]c2ccccc12)C(=O)N[C@@H](Cc1ccccc1)C(=O)NCC(N)=O [Pep 19-4, GKKYRRFRWKFKGKWFWFG] (H-GKKYRRFRWKFKGKWFWFG-NH2) |  |  |  | 15.6 (≈ 5.98 µM) |  |  |  |
| 16 (≈ 6.01 µM) | 15.6 (≈ 5.86 µM) | 15.6 (≈ 5.86 µM) | 64 (≈ 24 µM) | 16 (≈ 6.01 µM) | 16 (≈ 6.01 µM) | N=C(N)NCCC[C@H](NC(=O)CNC(=O)[C@H](CCCNC(=N)N)NC(=O)[C@H](Cc1ccccc1)NC(=O)[C@H](CCCCN)NC(=O)[C@H](Cc1c[nH]c2ccccc12)NC(=O)[C@H](CCCNC(=N)N)NC(=O)[C@H](Cc1ccccc1)NC(=O)[C@H](CCCNC(=N)N)NC(=O)[C@H](CCCNC(=N)N)NC(=O)[C@H](Cc1ccc(O)cc1)NC(=O)[C@H](CCCCN)NC(=O)[C@H](CCCCN)NC(=O)CN)C(=O)N[C@@H](Cc1ccccc1)C(=O)N[C@@H](Cc1c[nH]c2ccccc12)C(=O)N[C@@H](Cc1ccccc1)C(=O)N[C@@H](Cc1c[nH]c2ccccc12)C(=O)NCC(N)=O [Pep 19-5, GKKYRRFRWKFRGRFWFWG] (H-GKKYRRFRWKFRGRFWFWG-NH2) |  |  |  | 15.6 (≈ 5.86 µM) |  | 99 |  |
| 64 (≈ 24.1 µM) | >500 | >500 | 1024 (≈ 385 µM) | 64 (≈ 24.1 µM) | 32 (≈ 12 µM) | CC(C)C[C@H](NC(=O)[C@H](Cc1c[nH]c2ccccc12)NC(=O)[C@H](CC(C)C)NC(=O)[C@H](CCCCN)NC(=O)[C@H](CCC(N)=O)NC(=O)[C@H](CCCCN)NC(=O)[C@H](CS)NC(=O)[C@H](CCCCN)NC(=O)[C@H](CC(C)C)NC(=O)[C@H](CCCCN)NC(=O)[C@H](Cc1ccccc1)NC(=O)[C@H](CCCNC(=N)N)NC(=O)[C@H](CCCNC(=N)N)NC(=O)[C@H](Cc1ccccc1)NC(=O)[C@H](CCCCN)NC(=O)[C@H](CCCCN)NC(=O)[C@H](CS)NC(=O)CN)C(=O)N[C@@H](Cc1c[nH]c2ccccc12)C(=O)N[C@@H](CS)C(=O)NCC(N)=O [Pep 19-6] (H-GCKKFRRFKLKCKQKLWLWCG-NH2) |  |  |  | >500 | >500 |  |  |
| 16 (≈ 6.53 µM) | >500 | >500 | 645 (≈ 263 µM) | 16 (≈ 6.53 µM) | 16 (≈ 6.53 µM) | N=C(N)NCCC[C@H](NC(=O)[C@H](Cc1ccc(O)cc1)NC(=O)[C@H](CCCCN)NC(=O)[C@H](CCCCN)NC(=O)CN)C(=O)N[C@@H](CCCNC(=N)N)C(=O)N[C@@H](Cc1ccccc1)C(=O)N[C@@H](Cc1c[nH]c2ccccc12)C(=O)N[C@@H](CCCCN)C(=O)N[C@@H](Cc1ccccc1)C(=O)N[C@@H](CCCCN)C(=O)NCC(=O)N[C@@H](CCCCN)C(=O)N[C@@H](Cc1c[nH]c2ccccc12)C(=O)N[C@@H](Cc1ccccc1)C(=O)N[C@@H](Cc1ccccc1)C(=O)N[C@@H](Cc1c[nH]c2ccccc12)C(=O)NCC(N)=O [Pep 19-7, GKKYRRFWKFKGKWFFWG] (H-GKKYRRFWKFKGKWFFWG-NH2) |  |  |  | >500 | >500 |  |  |
| 16 (≈ 6.07 µM) |  |  | 32 (≈ 12.1 µM) | 8 (≈ 3.03 µM) | 8 (≈ 3.03 µM) | N=C(N)NCCC[C@H](NC(=O)CNC(=O)[C@H](CCCCN)NC(=O)[C@H](Cc1ccccc1)NC(=O)[C@H](CCCCN)NC(=O)[C@H](Cc1c[nH]c2ccccc12)NC(=O)[C@H](CCCNC(=N)N)NC(=O)[C@H](Cc1ccccc1)NC(=O)[C@H](CCCCN)NC(=O)[C@H](CCCCN)NC(=O)[C@H](Cc1ccc(O)cc1)NC(=O)[C@H](CCCNC(=N)N)NC(=O)[C@H](CCCNC(=N)N)NC(=O)CN)C(=O)N[C@@H](Cc1c[nH]c2ccccc12)C(=O)N[C@@H](Cc1ccccc1)C(=O)N[C@@H](Cc1c[nH]c2ccccc12)C(=O)N[C@@H](Cc1ccccc1)C(=O)NCC(N)=O [Pep 19-8, GRRYKKFRWKFKGRWFWFG] (H-GRRYKKFRWKFKGRWFWFG-NH2) |  |  |  |  |  | 99 |  |
|  |  |  |  |  |  | GCKKFRRLKWKYKGKFWFWCG (GCKKFRRLKWKYKGKFWFWCG-NH2; cysteine pairing not given here) [Pep 19-1] |  |  |  |  |  |  | inhibits most strongly |
|  |  |  |  |  |  | KKFRRLKWKYKGKFWFW (Synthetic antimicrobial peptide 1Pep17-1) [Pep 17-1] | 7/11 | 7/11 | 8/11 |  |  |  |  |
|  |  |  |  |  |  | KKYRRFRWKFKGKFWFW (Synthetic antimicrobial peptide 1Pep17-2) [Pep 17-2] | 7/10 | 7/10 | 8/11 |  |  |  |  |
|  |  |  |  |  |  | polymyxin B [PMB, reference compound] | 0/10 | 0/10 | 0/10 |  |  |  |  |

| Compound | MIC [1] [mg/L] | MIC [2] [mg/L] | MIC [3] [mg/L] | MIC [4] [mg/L] | MIC (MRSA ATCC 43300) [mg/L] | MIC (MRSA CUN 3792-99) [mg/L] | Dead mice/number of mice, 24 h (LPS) | Dead mice/number of mice, 48 h (LPS) | Dead mice/number of mice, 72 h (LPS) | MBC [2] [mg/L] | MBC [3] [mg/L] | % inhibition of virus replication in a T-cell line (HIV-1 isolate) [%] | Inhibition of LPS-induced cytokine production [5] |
| --- | --- | --- | --- | --- | --- | --- | --- | --- | --- | --- | --- | --- | --- |
| N=C(N)NCCC[C@H](NC(=O)[C@H](Cc1ccc(O)cc1)NC(=O)[C@H](CCCCN)NC(=O)[C@H](CCCCN)NC(=O)[C@H](CS)NC(=O)CN)C(=O)N[C@@H](CCCNC(=N)N)C(=O)N[C@@H](Cc1ccccc1)C(=O)N[C@@H](CCCNC(=N)N)C(=O)N[C@@H](Cc1c[nH]c2ccccc12)C(=O)N[C@@H](CCCCN)C(=O)N[C@@H](Cc1ccccc1)C(=O)N[C@@H](CCCCN)C(=O)NCC(=O)N[C@@H](CCCCN)C(=O)N[C@@H](Cc1ccccc1)C(=O)N[C@@H](Cc1c[nH]c2ccccc12)C(=O)N[C@@H](Cc1ccccc1)C(=O)N[C@@H](Cc1c[nH]c2ccccc12)C(=O)N[C@@H](CS)C(=O)NCC(N)=O [Pep 19-2] (H-GCKKYRRFRWKFKGKFWFWCG-NH2) | 64 (≈ 22.7 µM) | 128 (≈ 45.5 µM) | 128 (≈ 45.5 µM) | 512 (≈ 182 µM) | 128 (≈ 45.5 µM) | 1024 (≈ 364 µM) | 0/10 | 0/10 | 0/10 | 512 (≈ 182 µM) | 512 (≈ 182 µM) |  |  |
